The record followed here is patent US20230234942A1, “COMPOUNDS FOR TREATING HUNTINGTON'S DISEASE” (PTC Therapeutics, Inc., priority 2020, published 2023).

In general, IC50 refers to the concentration that inhibits the measured activity by half. A higher IC50 goes with lower potency.

In this experiment the test system is Endogenous Huntingtin Protein. In words: Endogenous Huntingtin Protein Assay (ELISA-based MSD electrochemiluminescence). It counts as cell-based. The following applies: Table 2; MSD plates coated with MW1 (expanded polyglutamine) or MAB2166 capture antibody; "inactive" = result above the detection limit of the assay. In a few lines: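 MSD electrochemiluminescence sandwich ELISA: capture with MW1 (expanded polyQ) or MAB2166 at 1 µg/mL, samples incubated overnight at 4 °C. Detection by rabbit mAb #56565 then SULFO-TAG anti-rabbit antibody, each 0.25 µg/mL for 1 h at room temperature, read in buffer T on SI 6000 imager.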
For orientation: In an ELISA, binding on a coated surface is turned into a signal by an enzyme label.
Molecule `C[C@H]1CN(c2ncc(-c3ccc(-c4cn[nH]c4)cc3O)nn2)[C@@H](C)CN1` [Cpd 176, 2-{3-[(2S,5S)-2,5-dimethylpiperazin-1-yl]-1,2,4-triazin-6-yl}-5-(1H-pyrazol-4-yl)phenol] had an IC50 of 619 nM.

`C[C@@H]1CN(c2ncc(-c3ccc(-c4cc(F)c5nn(C)cc5c4)cc3O)nn2)C[C@@H](C)N1` [Cpd 76, 2-{3-[(3R,5R)-3,5-dimethylpiperazin-1-yl]-1,2,4-triazin-6-yl}-5-(7-fluoro-2-methyl-2H-indazol-5-yl)phenol] showed an IC50 of 4.3 nM.

`COc1cc(-c2ccc(-c3cnc(N4C[C@@H](C)N[C@@H](C(C)C)C4)nn3)c(O)c2)ncn1` [Cpd 230, 5-(6-methoxypyrimidin-4-yl)-2-{3-[(3R,5S)-3-methyl-5-(propan-2-yl)piperazin-1-yl]-1,2,4-triazin-6-yl}phenol] yielded an IC50 of 11.3 nM.

`CC(C)[C@H]1CN(c2ncc(-c3ccc(-c4ncsn4)cc3O)nn2)CCN1` [Cpd 239, 2-{3-[(3S)-3-(propan-2-yl)piperazin-1-yl]-1,2,4-triazin-6-yl}-5-(1,2,4-thiadiazol-3-yl)phenol] gave an IC50 of 12.4 nM.

Molecule `CC(C)(O)C1CN(c2ncc(-c3ccc(-c4cn[nH]c4)cc3O)nn2)CCN1` (stereo not shown) [Cpd 13, 2-{3-[3-(2-hydroxypropan-2-yl)piperazin-1-yl]-1,2,4-triazin-6-yl}-5-(1H-pyrazol-4-yl)phenol] returned an IC50 of 11.4 nM.

For the molecule `CC(C)[C@H]1CN(c2ncc(-c3ccc(-c4ncc(Cl)s4)cc3O)nn2)CCN1` [Cpd 189, 5-(5-chloro-1,3-thiazol-2-yl)-2-{3-[(3S)-3-(propan-2-yl)piperazin-1-yl]-1,2,4-triazin-6-yl}phenol], the IC50 is 461 nM.

Consider `Oc1cc(-c2cn[nH]c2)ccc1-c1cnc(N2CCN[C@H](C3CC3)C2)nn1` [Cpd 136, 2-{3-[(3R)-3-cyclopropylpiperazin-1-yl]-1,2,4-triazin-6-yl}-5-(1H-pyrazol-4-yl)phenol], for which inhibition was half-maximal at 50.5 nM (IC50).

As to `Cn1nc2cc(-c3ccc(-c4cnc(N5CCN[C@@H](C6CC6)C5)nn4)c(O)c3)cnc2n1` [Cpd 168, 2-{3-[(3S)-3-cyclopropylpiperazin-1-yl]-1,2,4-triazin-6-yl}-5-(2-methyl-2H-[1,2,3]triazolo[4,5-b]pyridin-6-yl)phenol], the IC50 is 1.7 nM.

`COC1(C2CN(c3ncc(-c4ccc(-c5cn[nH]c5)cc4O)nn3)CCN2)CC1` (stereo not shown) [Cpd 29, 2-{3-[3-(1-methoxycyclopropyl)piperazin-1-yl]-1,2,4-triazin-6-yl}-5-(1H-pyrazol-4-yl)phenol] yielded an IC50 of 28.5 nM.

In the case of `CC(C)[C@H]1CN(c2ncc(-c3ccc(-c4cnn5cccnc45)cc3O)nn2)CCN1` [Cpd 243, 2-{3-[(3S)-3-(propan-2-yl)piperazin-1-yl]-1,2,4-triazin-6-yl}-5-(pyrazolo[1,5-a]pyrimidin-3-yl)phenol], 218 nM corresponded to half-maximal inhibition (IC50).

For `CCCC1CN(c2ncc(-c3ccc(-c4cn[nH]c4)cc3O)nn2)CCN1` (stereo not shown) [Cpd 31, 2-[3-(3-propylpiperazin-1-yl)-1,2,4-triazin-6-yl]-5-(1H-pyrazol-4-yl)phenol], the IC50 was determined as 34.3 nM.

Molecule `CC(C)[C@H]1CN(c2ncc(-c3ccc(-c4ncn(C)n4)cc3O)nn2)CCN1` [Cpd 259, 5-(1-methyl-1H-1,2,4-triazol-3-yl)-2-{3-[(3S)-3-(propan-2-yl)piperazin-1-yl]-1,2,4-triazin-6-yl}phenol] displayed a half-maximal inhibitory concentration (IC50) of 338 nM.

On to `CC(C)[C@H]1CN(c2ncc(-c3ccc(-c4cnn5c4CCC5)cc3O)nn2)CCN1` [Cpd 278, 5-(5,6-dihydro-4H-pyrrolo[1,2-b]pyrazol-3-yl)-2-{3-[(3S)-3-(propan-2-yl)piperazin-1-yl]-1,2,4-triazin-6-yl}phenol], for which the IC50 is 8.3 nM.

The molecule `Oc1cc(-c2ccsn2)ccc1-c1cnc(N2CCN[C@@H](C3CC3)C2)nn1` [Cpd 252, 2-{3-[(3S)-3-cyclopropylpiperazin-1-yl]-1,2,4-triazin-6-yl}-5-(1,2-thiazol-3-yl)phenol] came in with an IC50 of 16.5 nM.

For `CC(C)[C@H]1CN(c2ncc(-c3ccc(-c4cn5ncnc5cn4)cc3O)nn2)CCN1` [Cpd 128, 2-{3-[(3S)-3-(propan-2-yl)piperazin-1-yl]-1,2,4-triazin-6-yl}-5-([1,2,4]triazolo[1,5-a]pyrazin-6-yl)phenol], the IC50 is 26.7 nM.

`CC1([C@@H]2CN(c3ncc(-c4ccc(-c5cnn6c5CCC6)cc4O)nn3)CCN2)CC1` [Cpd 281, 5-(5,6-dihydro-4H-pyrrolo[1,2-b]pyrazol-3-yl)-2-{3-[(3R)-3-(1-methylcyclopropyl)piperazin-1-yl]-1,2,4-triazin-6-yl}phenol]: the IC50 came out at 198 nM.

Take `Cc1cn2cc(-c3ccc(-c4cnc(N5C[C@@H](C)N[C@@H](C)C5)nn4)c(O)c3)ncc2n1` [Cpd 86, 2-{3-[(3R,5S)-3,5-dimethylpiperazin-1-yl]-1,2,4-triazin-6-yl}-5-(2-methylimidazo[1,2-a]pyrazin-6-yl)phenol]: the IC50 was 6 nM.

Molecule `COc1csc(-c2ccc(-c3cnc(N4CCN[C@@H](C(C)C)C4)nn3)c(O)c2)n1` [Cpd 200, 5-(4-methoxy-1,3-thiazol-2-yl)-2-{3-[(3S)-3-(propan-2-yl)piperazin-1-yl]-1,2,4-triazin-6-yl}phenol] showed an IC50 of 30.1 nM.

The molecule `CC(C)[C@H]1CN(c2ncc(-c3ccc(-c4ccc5nsnc5c4)cc3O)nn2)CCN1` [Cpd 263, 5-(2,1,3-benzothiadiazol-5-yl)-2-{3-[(3S)-3-(propan-2-yl)piperazin-1-yl]-1,2,4-triazin-6-yl]phenol] displayed an IC50 of 214 nM.

As to `CC[C@H]1CN(c2ncc(-c3ccc(-n4nccn4)cc3O)nn2)CCN1` [Cpd 132, 2-{3-[(3S)-3-ethylpiperazin-1-yl]-1,2,4-triazin-6-yl}-5-(2H-1,2,3-triazol-2-yl)phenol], the IC50 was 38.9 nM.

In turn, `Cc1nc2nc(-c3ccc(-c4cnc(N5CCN[C@@H](C6CC6)C5)nn4)c(O)c3)nc(C)c2[nH]1` [Cpd 84, 2-{3-[(3S)-3-cyclopropylpiperazin-1-yl]-1,2,4-triazin-6-yl]-5-(6,8-dimethyl-7H-purin-2-yl)phenol] had an IC50 of 5.9 nM.

Molecule `Oc1cc(-c2cn[nH]c2)ccc1-c1cnc(N2CC3CCC(C2)N3)nn1` [Cpd 135, 2-[3-(3,8-diazabicyclo[3.2.1]octan-3-yl)-1,2,4-triazin-6-yl]-5-(1H-pyrazol-4-yl)phenol] had an IC50 of 185 nM.

`Cn1nnc2ncc(-c3ccc(-c4cnc(N5CCN[C@@H](C6CC6)C5)nn4)c(O)c3)cc21` [Cpd 169, 2-{3-[(3S)-3-cyclopropylpiperazin-1-yl]-1,2,4-triazin-6-yl}-5-(1-methyl-1H-[1,2,3]triazolo[4,5-b]pyridin-6-yl)phenol] had an IC50 of 355 nM.

For `Oc1cc(-c2c[nH]nc2F)ccc1-c1cnc(N2CCNC3(CC3)C2)nn1` [Cpd 57, 2-[3-(4,7-diazaspiro[2.5]octan-7-yl)-1,2,4-triazin-6-yl]-5-(3-fluoro-1H-pyrazol-4-yl)phenol], the IC50 amounted to 668 nM.

Molecule `CC(C)[C@H]1CN(c2ncc(-c3ccc(-c4ccc5nn(C)cc5c4)cc3O)nn2)CCN1` [Cpd 88, 5-(2-methyl-2H-indazol-5-yl)-2-{3-[(3S)-3-(propan-2-yl)piperazin-1-yl]-1,2,4-triazin-6-yl}phenol] showed an IC50 of 6.5 nM.

Regarding `Cc1cn2nc(-c3ccc(-c4cnc(N5C[C@@H](C)N[C@@H](C)C5)nn4)c(O)c3)cc(C)c2n1` [Cpd 69, 5-(2,8-dimethylimidazo[1,2-b]pyridazin-6-yl)-2-{3-[(3R,5S)-3,5-dimethylpiperazin-1-yl]-1,2,4-triazin-6-yl}phenol], half-maximal inhibition (IC50) was put at 3.6 nM.

The molecule `Cc1cc(-c2ccc(-c3cnc(N4CCNC(C(C)C)C4)nn3)c(O)c2)ccn1` (stereo not shown) [Cpd 44, 5-(2-methylpyridin-4-yl)-2-{3-[3-(propan-2-yl)piperazin-1-yl]-1,2,4-triazin-6-yl}phenol] came in with an IC50 of 138 nM.

Molecule `CC(C)[C@H]1CN(c2ncc(-c3ccc(-c4cnn5c4OCCC5)cc3O)nn2)CCN1` [Cpd 282, 5-(6,7-dihydro-5H-pyrazolo[5,1-b][1,3]oxazin-3-yl)-2-{3-[(3S)-3-(propan-2-yl)piperazin-1-yl]-1,2,4-triazin-6-yl}phenol] had a concentration for half-maximal inhibition (IC50) of 131 nM.

Take `Oc1cc(-c2ncns2)ccc1-c1cnc(N2CCN[C@@H](C3CC3)C2)nn1` [Cpd 170, 2-{3-[(3S)-3-cyclopropylpiperazin-1-yl]-1,2,4-triazin-6-yl}-5-(1,2,4-thiadiazol-5-yl)phenol]: the IC50 was found to be 21.5 nM.

`Cc1cc(-c2ccc(-c3cnc(N4CCNC(C(C)C)C4)nn3)c(O)c2)ncn1` (racemic) [Cpd 149, 5-(6-methylpyrimidin-4-yl)-2-{3-[(3RS)-3-(propan-2-yl)piperazin-1-yl]-1,2,4-triazin-6-yl}phenol] had an IC50 of 90.7 nM.

`CC(C)[C@H]1CN(c2ncc(-c3ccc(-c4ncccn4)cc3O)nn2)CCN1` [Cpd 151, 2-{3-[(3S)-3-(propan-2-yl)piperazin-1-yl]-1,2,4-triazin-6-yl}-5-(pyrimidin-2-yl)phenol] had an IC50 of 204 nM.

For the molecule `C[C@@H]1CN(c2ncc(-c3ccc(-c4cc(C#N)c5nn(C)cc5c4)cc3O)nn2)C[C@H](C)N1` [Cpd 80, 5-(4-{3-[(3R,5S)-3,5-dimethylpiperazin-1-yl]-1,2,4-triazin-6-yl}-3-hydroxyphenyl)-2-methyl-2H-indazole-7-carbonitrile], the half-maximal inhibitory concentration (IC50) amounted to 5.3 nM.

In the case of `Cc1cc(C)n2nc(-c3ccc(-c4cnc(N5C[C@@H](C)N[C@@H](C)C5)nn4)c(O)c3)nc2n1` [Cpd 117, 2-{3-[(3R,5S)-3,5-dimethylpiperazin-1-yl]-1,2,4-triazin-6-yl}-5-(5,7-dimethyl[1,2,4]triazolo[1,5-a]pyrimidin-2-yl)phenol], the “IC50 (nM)” value was “inactive”.

In turn, `COc1cc(-c2ccc(-c3cnc(N4C[C@@H](C)N[C@@H](C5CC5)C4)nn3)c(O)c2)ccn1` [Cpd 256, 2-{3-[(3S,5R)-3-cyclopropyl-5-methylpiperazin-1-yl]-1,2,4-triazin-6-yl}-5-(2-methoxypyridin-4-yl)phenol] gave an IC50 of 12.4 nM.
